We go through 2 molecules from paper PMC4684755 (ACS chemical biology, 2015).

Test [1] addresses T1, CsyA (Aspergillus oryzae, UniProt Q53U85).
T1 sequence (Q53U85 1-402): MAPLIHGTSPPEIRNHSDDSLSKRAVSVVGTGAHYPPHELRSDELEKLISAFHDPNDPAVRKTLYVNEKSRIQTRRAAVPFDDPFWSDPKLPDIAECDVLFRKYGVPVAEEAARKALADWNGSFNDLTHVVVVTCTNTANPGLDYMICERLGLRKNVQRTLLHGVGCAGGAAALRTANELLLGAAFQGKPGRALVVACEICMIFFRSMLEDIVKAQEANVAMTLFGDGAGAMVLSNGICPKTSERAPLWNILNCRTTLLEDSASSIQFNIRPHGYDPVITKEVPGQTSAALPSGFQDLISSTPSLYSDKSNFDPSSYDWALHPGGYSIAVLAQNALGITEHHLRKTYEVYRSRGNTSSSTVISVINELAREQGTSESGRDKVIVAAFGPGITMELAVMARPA
Nature of the test: type III PKS assay, LC-HRMS. Type of test: biochemical. The note with it: malonyl-CoA 2 mM, pH 8.0, room temperature, overnight.

Test [2] addresses ORAS (Neurospora crassa, UniProt Q7S6N4). Nature of the test: type III PKS assay, LC-HRMS. In kind it is biochemical. The note with it: pH 8.0, room temperature, overnight.
The target of test [3] is PKS18 (Mycobacterium tuberculosis, UniProt P9WPF1).
Sequence of PKS18 (P9WPF1 whole entry): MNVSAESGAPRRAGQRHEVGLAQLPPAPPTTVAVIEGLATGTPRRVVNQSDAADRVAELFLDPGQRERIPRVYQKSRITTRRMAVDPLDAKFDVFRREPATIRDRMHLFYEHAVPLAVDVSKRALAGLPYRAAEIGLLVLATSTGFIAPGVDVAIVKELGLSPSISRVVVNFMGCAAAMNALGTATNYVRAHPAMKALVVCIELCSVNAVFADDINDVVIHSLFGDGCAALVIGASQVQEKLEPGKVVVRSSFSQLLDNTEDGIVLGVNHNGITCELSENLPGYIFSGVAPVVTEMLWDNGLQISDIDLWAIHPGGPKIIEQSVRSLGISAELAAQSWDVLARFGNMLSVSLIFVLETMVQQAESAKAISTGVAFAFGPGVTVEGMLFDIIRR

Turning to `CCCCCCCCCCCC(=O)SCCNC(=O)CCNC(=O)[C@H](O)C(C)(C)COP(=O)(O)OP(=O)(O)OC[C@H]1O[C@@H](n2cnc3c(N)ncnc32)[C@H](O)[C@@H]1OP(=O)(O)O` [lauryl-CoA], the “type III PKS assay, LC-HRMS” value in test [1] is “enzymatic reactions containing lauryl-CoA, malonyl-CoA and the type III PKSs as positive controls”; in test [2] (malonyl-CoA 2 mM) it was “enzymatic reactions containing lauryl-CoA, malonyl-CoA and the type III PKSs as positive controls”; in test [3], “enzymatic reactions containing lauryl-CoA, malonyl-CoA and the type III PKSs as positive controls”.
Turning to `CC(C)(COP(=O)(O)OP(=O)(O)OC[C@H]1O[C@@H](n2cnc3c(N)ncnc32)[C@H](O)[C@@H]1OP(=O)(O)O)[C@@H](O)C(=O)NCCC(=O)NCCSC(=O)CC(=O)O` [malonyl-CoA], the “type III PKS assay, LC-HRMS” value in test [2] (lauryl-CoA 1 mM) was “enzymatic reactions containing lauryl-CoA, malonyl-CoA and the type III PKSs as positive controls”; in test [3] it was “enzymatic reactions containing lauryl-CoA, malonyl-CoA and the type III PKSs as positive controls”.
